For orientation: melting point means the temperature, or range, at which the solid turns liquid.

`Cc1ccc(-c2c(-c3ccncc3)nc(-c3c(Cl)cccc3Cl)n2C)cc1` [Example 1, 4-[2-(2,6-Dichloro-phenyl)-1-methyl-5-(4-methyl-phenyl)-1H-imidazol-4-yl]-pyridine]: the melting point lay in the range of 214 to 217 °C.
In turn, `Cc1ccc(-c2c(-c3ccncc3)nc(-c3c(C)cc(C)cc3C)n2C)cc1` [Example 2, 4-[1-Methyl-5-(4-methyl-phenyl)-2-(2,4,6-trimethyl-phenyl)-1H-imidazol-4-yl]-pyridine] had a melting point of 204 to 207 °C.
`CCn1c(-c2c(C)cc(C)cc2C)nc(-c2ccncc2)c1-c1ccc(C)cc1` [Example 4, 4-[1-Ethyl-5-(4-methyl-phenyl)-2-(2,4,6-trimethyl-phenyl)-1H-imidazol-4-yl]-pyridine] registered a melting point of 137 to 140 °C.
To `CCn1c(-c2c(Cl)cccc2Cl)nc(-c2ccncc2)c1-c1ccc(Cl)cc1` [Example 5, 4-[5-(4-Chloro-phenyl)-2-(2,6-dichloro-phenyl)-1-ethyl-1H-imidazol-4-yl]-pyridine] belongs 193 to 196 °C.
With `CCn1c(-c2c(C)cc(C)cc2C)nc(-c2ccncc2)c1-c1ccc(Cl)cc1Cl` [Example 6, 4-[1-Ethyl-5-(2,4-dichloro-phenyl)-2-(2,4,6-trimethyl-phenyl)-1H-imidazol-4-yl]-pyridine], the melting point lay within 191 to 193 °C.
In the case of `CCn1c(-c2c(C)cc(C)cc2C)nc(-c2ccncc2)c1-c1ccc(C(C)(C)C)cc1` [Example 7, 4-[5-(4-tert-Butyl-phenyl)-1-ethyl-2-(2,4,6-trimethyl-phenyl)-1H-imidazol-4-yl]-pyridine] it was 202 to 205 °C; in that of `CCn1c(-c2ccccc2C)nc(-c2ccncc2)c1-c1ccc(Cl)cc1` [Example 8, 4-[5-(4-Chloro-phenyl)-1-ethyl-2-(2-methyl-phenyl)-1H-imidazol-4-yl]-pyridine], 173 to 175 °C; in that of `CCn1c(-c2ccccc2)nc(-c2ccncc2)c1-c1ccc(Cl)cc1` [Example 9, 4-[5-(4-Chloro-phenyl)-1-ethyl-2-phenyl-1H-imidazol-4-yl]-pyridine], 267 to 270 °C.
In the case of `CCn1c(-c2c(C)cc(C)cc2C)nc(-c2ccncc2)c1-c1ccc(F)cc1` [Example 10, 4-[1-Ethyl-5-(4-fluoro-phenyl)-2-(2,4,6-trimethyl-phenyl)-1H-imidazol-4-yl]-pyridine] it was 194 to 196 °C; in that of `CCn1c(-c2c(C)cc(C)cc2C)nc(-c2ccncc2)c1-c1ccc(Cl)cc1` [Example 12, 4-[5-(4-Chloro-phenyl)-1-ethyl-2-(2,4,6-trimethyl-phenyl)-1H-imidazol-4-yl]-pyridine], 226 to 227 °C.
To `CCn1c(-c2c(C)cc(C)cc2C)nc(-c2ccncc2)c1-c1ccc(C(F)(F)F)cc1` [Example 13, 4-[1-Ethyl-5-(4-trifluoromethyl-phenyl)-2-(2,4,6-trimethyl-phenyl)-1H-imidazol-4-yl]-pyridine] belongs 227 to 228 °C; to `CCn1c(-c2c(C)cccc2C)nc(-c2ccncc2)c1-c1ccc(Cl)cc1` [Example 14, 4-[5-(4-Chloro-phenyl)-2-(2,6-dimethyl-phenyl)-1-ethyl-1H-imidazol-4-yl]-pyridine], 171 to 173 °C; to `CCn1c(-c2ccccc2Cl)nc(-c2ccncc2)c1-c1ccc(Cl)cc1` [Example 15, 4-[5-(4-Chloro-phenyl)-2-(2-chloro-phenyl)-1-ethyl-1H-imidazol-4-yl]-pyridine], 144 to 147 °C.
As for `CCn1c(-c2ccccc2Br)nc(-c2ccncc2)c1-c1ccc(Cl)cc1` [Example 16, 4-[2-(2-Bromo-phenyl)-5-(4-chloro-phenyl)-1-ethyl-1H-imidazol-4-yl]-pyridine], the melting point was 144 to 147 °C.
To `CCn1c(-c2c(C)cccc2Cl)nc(-c2ccncc2)c1-c1ccc(Cl)cc1` [Example 17, 4-[2-(2-Chloro-6-methyl-phenyl)-5-(4-chloro-phenyl)-1-ethyl-1H-imidazol-4-yl]-pyridine] belongs 188 to 190 °C; to `CCn1c(-c2c(OC)cc(OC)cc2OC)nc(-c2ccncc2)c1-c1ccc(Cl)cc1` [Example 18, 4-[5-(4-Chloro-phenyl)-1-ethyl-2-(2,4,6-trimethoxy-phenyl)-1H-imidazol-4-yl]-pyridine], 255 to 256 °C; to `C=CCn1c(-c2c(C)cc(C)cc2C)nc(-c2ccncc2)c1-c1ccc(C(F)(F)F)cc1` [Example 20, 4-[1-Allyl-5-(4-trifluoromethyl-phenyl)-2-(2,4,6-trimethyl-phenyl)-1H-imidazol-4-yl]-pyridine], 209 to 210 °C.
To `C=CCn1c(-c2c(C)cc(C)cc2C)nc(-c2ccncc2)c1-c1ccc(Cl)cc1` [Example 21, 4-[1-Allyl-5-(4-chloro-phenyl)-2-(2,4,6-trimethyl-phenyl)-1H-imidazol-4-yl]-pyridine] belongs 151 to 154 °C; to `C=CCn1c(-c2c(Cl)cccc2Cl)nc(-c2ccncc2)c1-c1ccc(Cl)cc1` [Example 22, 4-[1-Allyl-5-(4-chloro-phenyl)-2-(2,6-dichloro-phenyl)-1H-imidazol-4-yl]-pyridine], 163 to 165 °C.
The molecule `C=CCn1c(-c2c(C)cc(C)cc2C)nc(-c2ccncc2)c1-c1ccc(C)cc1` [Example 23, 4-[1-Allyl-5-(4-methyl-phenyl)-2-(2,4,6-trimethyl-phenyl)-1H-imidazol-4-yl]-pyridine] showed a melting point of 115 to 118 °C.
In the case of `FC(F)(F)Cn1c(-c2c(Cl)cccc2Cl)nc(-c2ccncc2)c1-c1ccc(Cl)cc1` [Example 25, 4-[5-(4-Chloro-phenyl)-2-(2,6-dichloro-phenyl)-1-(2,2,2-trifluoro-ethyl)-1H-imidazol-4-yl]-pyridine] it was 213 to 214 °C; in that of `OCCCn1c(-c2c(Cl)cccc2Cl)nc(-c2ccncc2)c1-c1ccc(Cl)cc1` [Example 29, 3-[5-(4-Chloro-phenyl)-2-(2,6-dichloro-phenyl)-4-pyridin-4-yl-imidazol-1-yl]-propan-1-ol], 233 to 235 °C.
To `CCn1c(-c2ccc(C(F)(F)F)cc2C(F)(F)F)nc(-c2ccncc2)c1-c1ccc(Cl)cc1` [Example 30, 4-[2-(2,4-Bis-trifluoromethyl-phenyl)-5-(4-chloro-phenyl)-1-ethyl-1H-imidazol-4-yl]-pyridine] belongs 148 to 150 °C; to `CCn1c(-c2ccnc3ccccc23)nc(-c2ccncc2)c1-c1ccc(Cl)cc1` [Example 32, 4-[5-(4-Chloro-phenyl)-1-ethyl-4-pyridin-4-yl-1H-imidazol-2-yl]-quinoline], 167 to 169 °C; to `CCn1c(-c2cc3ccccc3[nH]2)nc(-c2ccncc2)c1-c1ccc(Cl)cc1` [Example 33, 2-[5-(4-Chloro-phenyl)-1-ethyl-4-pyridin-4-yl-1H-imidazol-2-yl]-1H-indole], 279 to 280 °C.
On to `CCC(CC)c1nc(-c2ccncc2)c(-c2ccc(Cl)cc2)n1C` [Example 36, 4-[5-(4-Chloro-phenyl)-2-(1-ethyl-propyl)-1-methyl-1H-imidazol-4-yl]-pyridine], for which the melting point was in the range of 100 to 102 °C.

These data come from patent US20060173048A1, “Imidazole derivatives” (priority 2005, published 2006).
